Experimental data from ChEMBL document CHEMBL1782011, “Facile synthesis, vasorelaxant properties and molecular modeling studies of 2-amino-8a-methoxy-4H-pyrano[3,2-c]pyridine-3-carbonitriles” (Eur J Med Chem, 2011).
Where a name gives a salt, the structure may show the parent alone.

Species: Rattus norvegicus
Assay: Vasodilatory activity in Wistar rat thoracic aorta rings assessed as inhibition of norepinephrine hydrochloride-induced contraction
Format: functional

Row | Compound | IC50 [µM]
1 | CO[C@@]12CCN(C)C[C@H]1[C@H](c1ccc(Cl)cc1)C(C#N)=C(N)O2 | 370
2 | CO[C@@]12CCN(C)C[C@H]1[C@H](c1ccc(F)cc1)C(C#N)=C(N)O2 | 520
3 | CO[C@@]12CCN(C)C[C@H]1[C@H](c1ccc(C)cc1)C(C#N)=C(N)O2 | 600
4 | COc1ccc([C@@H]2C(C#N)=C(N)O[C@]3(OC)CCN(C)C[C@@H]23)cc1 | 300
5 | CO[C@@]12CCN(C)C[C@H]1[C@H](c1cccs1)C(C#N)=C(N)O2 | 680
6 | CO[C@@]12CCN(C)C[C@H]1[C@H](c1ccc(N3CCCCC3)cc1)C(C#N)=C(N)O2 | 450
7 | CO[C@@]12CCN(C)C[C@H]1[C@H](c1ccc(N3CCOCC3)cc1)C(C#N)=C(N)O2 | 740
8 | COc1cc2nc(N3CCN(C(=O)c4ccco4)CC3)nc(N)c2cc1OC [PRAZOSIN HYDROCHLORIDE] | 490

Second part, the compound after the results:

Row | IC50 [µM] | Compound
9 | 680 | CCN1CC[C@@]2(OC)OC(N)=C(C#N)[C@@H](c3ccccc3)[C@@H]2C1
10 | 400 | CCN1CC[C@@]2(OC)OC(N)=C(C#N)[C@@H](c3ccc(Cl)cc3)[C@@H]2C1
11 | 680 | CCN1CC[C@@]2(OC)OC(N)=C(C#N)[C@@H](c3ccc(OC)cc3)[C@@H]2C1
12 | 490 | CCN1CC[C@@]2(OC)OC(N)=C(C#N)[C@@H](c3cccs3)[C@@H]2C1
13 | 480 | CCN1CC[C@@]2(OC)OC(N)=C(C#N)[C@@H](c3ccc(N4CCCCC4)cc3)[C@@H]2C1
14 | 640 | CCN1CC[C@@]2(OC)OC(N)=C(C#N)[C@@H](c3ccc(N4CCOCC4)cc3)[C@@H]2C1
15 | 720 | CO[C@@]12CCN(C)C[C@H]1[C@H](c1ccccc1)C(C#N)=C(N)O2
